The values that follow come from US6900195B2, “Manzamines for treatment of drug resistant infection” (The University of Mississippi, priority 2000, dated 2005).

For series [1], the system named is M. tuberculosis (H37Rv). Put plainly: microbe, parasite or virus in culture. In kind it is cell-based, Mycobacterium tuberculosis. The settings on record: M. tuberculosis H37Rv.
In series [2] the test system is P. berghei. Put plainly: In vivo antimalarial activity in P. berghei-infected mice. Details: species or system Plasmodium berghei. The settings on record: three 50 μmoles/kg i.p. doses.
For series [3], the system named is Vero cells. As to the kind of experiment: In vitro cytotoxicity to mammalian cells (neutral red).
For series [4], the system named is P. falciparum W2 clone (Indochina, chloroquine-resistant). Put plainly: In vitro antimalarial activity, parasite LDH assay, W2 clone. In kind it is cell-based, Plasmodium falciparum.
In series [5] the test system is T. gondii (C56 strain). Put plainly: Survival of mice infected orally with T. gondii cysts. The class given is in vivo, Toxoplasma gondii. An excerpt: Toxoplasma gondii. […] Untreated infected mice in the control group started dying 10 days post infection. Mice treated with manzamine A died nine days after treatment stopped. […] FIGS. 1 and 2 provide the graphic results of this experiment. […] Treatment was begun on Day 1 following in infection and continued for 8 days.

The test system of series [6] is Plasmodium yoelii NS malaria strain. Put plainly: WHO Peters 4-day assay, Plasmodium yoelii NS in mice. In kind it is in vivo. An excerpt:
To confirm the activity of the manzamines against malaria the World Health Organization examined manzamine A against the Plasmodium yoelii NS malaria strain in mice (Peters 4-day assay-Handbook of Animal Models of Infection Chapter 92, Academic Press 1999).

Series [7] relates to P. falciparum D6 clone (Sierra Leone, chloroquine-sensitive). Put plainly: In vitro antimalarial activity, parasite LDH assay, D6 clone. In kind it is cell-based, Plasmodium falciparum.
For series [8], the system named is P. berghei. As to the kind of experiment: In vivo antimalarial activity in P. berghei-infected mice. Further details: species or system Plasmodium berghei. How it is done: In Vivo Evaluation of Antimalarial Activity. (National University of Singapore by Dr. Kenny Ang, confirmation of activity at the WHO). Four-week-old, male Swiss albino mice are injected intraperitoneally with 10^7 P. berghei-infected mouse erythrocytes. On day 2 after infection, mice are treated with a single intraperitoneal injection of either the test compound or a reference drug (chloroquine or artemisinin) within a concentration range of 50 to 1,000 μmol/kg of body weight. All test compounds and reference drugs were injected as a suspension in 5% Tween 60 saline. For oral administration, the test compounds are given as a suspension in corn oil, and mice are given two consecutive doses of test compound at 100 μmol/kg on days 2 and 3 after infection. […] Control mice receive only 5% Tween 60 saline or corn oil. Survival of mice was recorded daily. Percent parasitemia is determined microscopically (magnification, ×1,000) from mouse-tail blood smears that were fixed with methanol and stained with Giemsa stain. Blood samples from individual P. berghei-infected mice were collected at various times after a single intraperitoneal treatment of 100 μmol/kg of manzamine A per kg on day 3 after infection. For transmission electron microscopy, approximately 0.5-ml blood samples are fixed with 3% glutaraldehyde in 0.1 M cacodylate buffer (pH 7.4), postfixed with 1% osmium tetroxide and 1% uranyl acetate, dehydrated in a graded ethanol series, and embedded in Spurr's resin. The resulting blocks are cut by using a Reichert-Jung Ultracut with a glass knife. Ultra thin sections were mounted on 150-mesh copper grids, stained with 1% uranyl acetate and 1% lead citrate, and examined with a JEM-100CX electron microscope. Manzamine in plasma was detected by liquid chromatography=selected reaction monitoring-mass spectrometry (LC-SRM-MS). P. berghei-infected mice will be treated with the alkaloid (100 μmol/kg intraperitoneally) on day 3 post infection. Blood samples are collected from individual mice at specific times up to 48 h posttreatment. Plasma was isolated by centrifugation and extracted with 95% acetonitrile containing 5 mM ammonium acetate. The plasma extract was filtered, and 5 μl samples are injected into a Shimadzu LC-10 AD microbore high-pressure liquid chromatograph interfaced with a Perkin-Elmer API 300 turbo-ion-spray tandem mass spectrometer. Samples are separated on a Prodigy C-18 column (30 by 1 mm, 5-μm inner diameter) by elution at 50 μl/min with 86% acetonitrile containing 5 mM ammonium acetate. Manzamine can be detected by monitoring the transition of the protonated manzamine precursor ion from the (M+H)^+ to the (M+H —H2O)^+. Peak areas for the product ion chromatograms are integrated, and concentrations are determined from a linear calibration curve for manzamine in spiked plasma. The limit of detection for the manzamines in plasma by LC-SRM-MS is 2.5 pg. Results are subjected to a nonparametric statistical assessment with a confidence interval of 99% (p<0.01) by using Analyse-it software linked to Microsoft Excel. The program uses the Mann-Whitney U test to determine significant differences between two groups of data.

Series [9] relates to HIV-1 in human PBM cells. As to the kind of experiment: Anti-HIV activity in human PBM cells. The settings on record: Human immunodeficiency virus 1, PBMC. In kind it is cell-based.
Series [10] is described as follows: Cytotoxicity in human PBM cells. Conditions: human.

Converted amounts (≈) assume the structure as drawn.

As usually defined, the % Inhibition is the change of the read-out against control, counted positive when it falls. A higher % Inhibition goes with a response far below the control. The term IC50 denotes the midpoint of a concentration-inhibition curve. A word on the ED50: it is the midpoint of the dose-response relation. High values mean a need for a large dose, low ones an effect at a small dose. By EC50 is commonly meant the concentration needed to bring the measured effect to its halfway point. High values mean weaker potency, low ones greater potency. For `O[C@]12C=C(c3nccc4c3[nH]c3ccccc34)[C@@H]3CCN(CCCC/C=C\CC1)C[C@@]31C[C@@H]3/C=C\CCCCN3[C@@H]12` [Manzamine A], in series [1] (test concentration not given), the “% Inhibition” value is recorded as 99%. Moreover, the MIC in [1] (Mycobacterium tuberculosis, read-out: MIC) is 1560 ng/mL (≈ 2.84 µM). Besides, the “outcome after three doses” value in series [2] was “curative and totally clears the parasite”. For the same compound, in [3], the “Cytotoxicity TC50” value is 290 ng/mL. For the same compound, the IC50 in series [4] (Plasmodium falciparum, W2, read-out: W2 Clone IC50) came to 8 ng/mL (≈ 0.0146 µM); in [7] (Plasmodium falciparum, D6, read-out: D6 Clone IC50), 4.5 ng/mL (≈ 0.0082 µM); in [10], 5.1 µM. The “Selectivity index (SI), W2 clone” value in series [4] (Vero TC50 relative to W2 IC50) is listed as “SI = 36”. Moreover, in [5] (8 mg/kg i.p. once a day for 8 days), the “time of death after treatment stopped” value is listed as “nine”. Moreover, the “signs or behavior during treatment” value in series [5] (8 mg/kg i.p. once a day for 8 days (paralysis, blindness, twirling)) is “no uncommon signs or behavior”. The “survival at day 16 of infection” value in series [5] (8 mg/kg i.p. once a day for 8 days, all control mice had died by day 16) is “all the manzamine A treated mice were alive”. In series [5] (SW mice, 10 cysts C56 orally, 8 mg/kg i.p. once a day for 8 days from day 1), the “time to death” value was “significant prolongation of time to death”. The compound further gave an ED50 in series [6] (Plasmodium yoelii, 96 h) below 5 mg/kg. In addition, the “activity relative to Na artesunate” value in [6] (given orally in DMSO or carboxy-methylcellulose-based formulation) is reported as “more active than Na artesunate”. In series [7] (Vero TC50 relative to D6 IC50), the “Selectivity index (SI), D6 clone” value is listed as “SI = 64”. Moreover, in series [8] (P. berghei-infected mice, single i.p. 100 μmoles/kg, comparison 2 days after treatment), the “reduction of parasitemia” value is recorded as “comparable reduction of parasitemia”. In addition, the “reduction of parasitemia compared with control mice” value in [8] (P. berghei-infected mice, two oral doses 100 μmoles/kg) came out at 90%. The “in vivo activity against P. berghei relative to chloroquine or artemisinin” value in series [8] (mice) is “in vivo activity against P. berghei greater than chloroquine or artemisinin”. Moreover, in series [9], the EC50 is 12.9 µM.
